Where “and” joins values, the source holds several entries; their conditions need not be identical. Identical values can stand only once. Like-named read-outs stand apart in the source and are kept apart here.
Legend:
[1] = tested on: HIV-1 IIIB; experiment: microbe, parasite or virus in culture; assay type: cell-based
Outline: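 cMAGI β-galactosidase reporter cells or MT2 cells infected at 0.2-0.5 MOI with wild-type or resistant HIV-1 and incubated 4 days at 37 °C with varying compound concentrations. Infection scored by counting X-gal-stained blue cMAGI cells; MT2 syncytium formation assessed microscopically, cytotoxicity by trypan blue exclusion.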

[2] = tested on: HIV-1 AZT resistant virus; assay type: cell-based; settings: Table 4; read-out: EC50 AZT^Res
Method: (§1) Inhibition of HIV-1 cell replication was tested using the cMAGI assay, which is based on the ability of HIV-1 TAT to transactivate the expression of an integrated β-galactosidase reporter gene driven by the HIV-LTR (B. Chackeria et al., J. Virol., (1997) 71, 3932; Collins et al., Nat. Med. (2000) 6, 475). The β-galactosidase reporter is modified to remain localized in the nucleus where it can be detected with the X-gal (5-bromo-4-chloro-3indoyl-β-D-galactopyranoside) substrate as an intense nuclear stain within a few days of infection.
(§2) HIV-1 isolates were propagated by subculture in MT2 cells (Litovchick et al. (2001) supra). Aliquots of cell-free culture supernatants were used as viral inoculum. PAACs were dissolved in the RPMI 1640 medium. Cytotoxicity determinations were carried out in MT2 cells by trypan blue exclusion assay. Viral inhibition was determined by incubating MT2 or cMAGI HIV-1 reporter cells with 0.2-0.5 multiplicity of infection of HIV-1 wild type or resistant virus for 4 days at 37° C. in the presence or absence of various concentrations of pAACs. HIV-1 infection of cMAGI cells was determined by counting the number of HIV-1-infected cells (stained blue). The cytopathic effects of the viral infection of MT2 cells were also analyzed by microscopic assessment of syncytium formation.

[3] = tested on: HIV-1 Ba-L; assay type: cell-based; settings: Table 4
Method: as §1, §2

[4] = tested on: HIV-1 NeoR6 resistant virus; assay type: cell-based; settings: read-out: EC50 NeoR6^Res; Table 4
Method: as §1, §2

[5] = tested on: HIV-1 Protease resistant virus; assay type: cell-based; settings: Table 4; read-out: EC50 Protease^Res
Method: as §1, §2

[6] = tested on: HIV-1 clinical isolate Clade A; assay type: cell-based
Method: as §1, §2

[7] = tested on: HIV-1 clinical isolate Clade C; assay type: cell-based
Method: as §1, §2

[8] = molecular target: T1, CXCR4 (Homo sapiens, UniProt P61073); experiment: Competition with 12G5 mAb binding to CXCR4 on MT2 cells (flow cytometry)
T1 construct: incubated at 4° C. with anti-CXCR4 mAb, 12G5, conjugated to phycoerithrine (PE); endogenous in cells; host or cells: MT2 cells
T1 sequence (P61073 whole entry): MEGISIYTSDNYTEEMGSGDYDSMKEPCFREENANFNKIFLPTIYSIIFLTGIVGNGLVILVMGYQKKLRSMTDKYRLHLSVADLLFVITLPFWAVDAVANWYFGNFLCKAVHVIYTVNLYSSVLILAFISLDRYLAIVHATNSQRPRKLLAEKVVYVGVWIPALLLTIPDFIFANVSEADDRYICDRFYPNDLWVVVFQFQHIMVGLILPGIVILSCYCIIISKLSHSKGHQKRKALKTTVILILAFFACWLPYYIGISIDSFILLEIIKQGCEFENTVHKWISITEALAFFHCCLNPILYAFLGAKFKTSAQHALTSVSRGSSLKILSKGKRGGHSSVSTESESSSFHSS
Outline: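 MT2 cells (0.5×10^6) were incubated for 30 min at 4 °C with PE-conjugated 12G5 anti-CXCR4 mAb, alone or with varying concentrations of pAACs or arginine peptides, in ice-cold PBS/0.1% azide. Cells were then fixed in 1% paraformaldehyde and analysed by flow cytometry (10,000 events), with an isotype control defining non-specific fluorescence.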

[9] = tested on: Enterococcus faecalis ATCC 29212; settings: Gram positive reference strain
[10] = tested on: S. aureus MSSA; settings: Gram positive clinical isolate
[11] = tested on: Enterococcus faecalis (clinical isolate); settings: Gram positive clinical isolate
[12] = tested on: Escherichia coli ATCC 25922; settings: Gram negative reference strain
[13] = tested on: Klebsiella pneumoniae ATCC 13883; settings: Gram negative reference strain
[14] = tested on: Proteus mirabilis ATCC 7002; settings: Gram negative reference strain
[15] = tested on: Acinetobacter baumannii ATCC 19606; settings: Gram negative reference strain
[16] = tested on: E. Coli-ESBL negative; settings: Gram negative clinical isolate
[17] = tested on: E. Coli-ESBL positive; settings: Gram negative clinical isolate
[18] = tested on: K. pneumoniae-ESBL negative; settings: Gram negative clinical isolate
[19] = tested on: K. pneumoniae-ESBL positive; settings: Gram negative clinical isolate
[20] = tested on: Enterobacter cloacae; settings: Gram negative clinical isolate
[21] = tested on: Enterobacter aerogenes; settings: Gram negative clinical isolate
[22] = tested on: A. baumannii-amikacin^s, meropenem^s; settings: Gram negative clinical isolate
[23] = tested on: A. baumannii-amikacin^r, meropenem^r; settings: Gram negative clinical isolate
[24] = tested on: E. coli U23773^r; settings: Gram negative clinical isolate

Molecule	EC50 ([1]; Table 4, read-out: EC50 IIIB) [nM]	EC50 [2] [nM]	EC50 [3] [nM]	EC50 [4] [nM]	EC50 [5] [nM]	Minimum Inhibitory Concentration [9]	Minimum Inhibitory Concentration [10]	Minimum Inhibitory Concentration [11]	Minimum Inhibitory Concentration [12]	Minimum Inhibitory Concentration [13]	Minimum Inhibitory Concentration [14]	Minimum Inhibitory Concentration [15]	Minimum Inhibitory Concentration [16]	Minimum Inhibitory Concentration [17]	Minimum Inhibitory Concentration [18]	Minimum Inhibitory Concentration [19]	Minimum Inhibitory Concentration [20]	Minimum Inhibitory Concentration [21]	Minimum Inhibitory Concentration [23]	Minimum Inhibitory Concentration [24]	other results
CC(=O)N[C@H](CCCNC(=N)N)C(=O)N[C@H](CCCNC(=N)N)C(=O)N[C@H](CCCNC(=N)N)C(=O)N[C@H](CCCNC(=N)N)C(=O)N[C@H](CCCNC(=N)N)C(=O)N[C@H](CCCNC(=N)N)C(=O)N[C@H](CCCNC(=N)N)C(=O)N[C@H](CCCNC(=N)N)C(=O)N[C@H](CCCNC(=N)N)C(=O)O [Compound 12, D-Arg-9-mer-NHAc]	1500 ± 600	9700 ± 5900	> 50000	2000 ± 1200	1400 ± 600	64.0 mg/liter and 31.91 μM	> 128.0 mg/liter and 63.82 μM	128.0 mg/liter and 63.82 μM	128.0 mg/liter and 63.82 μM	96.0 mg/liter and 47.86 μM	> 256.0 mg/liter and 127.64 μM	> 256.0 mg/liter and 127.64 μM	128.0 mg/liter and 63.82 μM	64.0 mg/liter and 31.91 μM	256.0 mg/liter and 127.64 μM	48.0 mg/liter and 23.93 μM	128.0 mg/liter and 63.82 μM	128.0 mg/liter and 63.82 μM	> 256.0 mg/liter and 127.64 μM	64.0 mg/L	EC50 ([6]; clinical isolate Clade A): 2200 ± 300 nM; EC50 ([7]; clinical isolate Clade C): 1600 ± 400 nM; inhibition at 2 µM ([8]; 2 μM, read-out: % Inhibition of 12G5 mAb binding to CXCR4): 81.3%; inhibition at 10 µM ([8]; 10 μM, read-out: % Inhibition of 12G5 mAb binding to CXCR4): 99.6%; Minimum Inhibitory Concentration [22]: 256.0 mg/liter and 127.64 μM
NCC1OC(OC2C(CO)OC(OC3C(O)C(N)CC(N)C3OC3OC(CN)C(O)C(O)C3N)C2O)C(N)C(O)C1O (centres unmarked) [Neomycin]																			105.61 µM	140.81 µM	EC50 ([1]; Human immunodeficiency virus 1, MT2, Table 3, against HIV-1 IIIB virus, read-out: EC50): > 200000 nM
D-Arg-9-mer-neomycin [Compound 14]	1300 ± 400	6600 ± 5900	> 50000	2000 ± 500	1500 ± 400	128.0 mg/liter and 44.11 μM	16.0 mg/liter and 5.51 μM	64.0 mg/liter and 22.05 μM	32.0 mg/liter and 11.02 μM	12.0 mg/liter and 4.14 μM	64.0 mg/liter and 22.05 μM	> 256.0 mg/liter and 88.22 μM	16.0 mg/liter and 5.51 μM	24.0 mg/liter and 8.27 μM	64.0 mg/liter and 22.05 μM	32.0 mg/liter and 11.02 μM	64.0 mg/liter and 22.05 μM	32.0 mg/liter and 11.02 μM	> 256.0 mg/liter and 88.22 μM	32.0 mg/L	EC50 ([6]; Table 4, read-out: EC50 Clade A): 2100 ± 400 nM; EC50 ([7]; Table 4, read-out: EC50 Clade C): 1200 ± 500 nM; % Inhibition of 12G5 mAb binding to CXCR4 ([8]; 2 μM): 95.3%; % Inhibition of 12G5 mAb binding to CXCR4 ([8]; 10 μM): 100%; Minimum Inhibitory Concentration [22]: 128.0 mg/liter and 44.11 μM

— US20060166867A1, “Novel conjugates of polysaccharides and uses thereof” (priority 2003, published 2006)
